Laboratory results published in PubChem BioAssay (NCI).
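1) Cells in 96-well plates. 2) Compound, 48 h, 5 concentrations. 3) Linear interpolation between surrounding doses. 4) Unreached endpoint = highest concentration. TGI marks complete inhibition of growth.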

What was measured:
Assay in all cases: NCI tumour cell line growth inhibition, 48 h
[1] = test system: SNB-75 CNS
[2] = test system: SW-620 colon
[3] = test system: TK-10 renal
[4] = test system: EKVX NSCLC
[5] = test system: SF-539 CNS
[6] = test system: OVCAR-3 ovarian
[7] = test system: SK-MEL-5 melanoma
[8] = test system: SK-MEL-2 melanoma
[9] = test system: LOX IMVI melanoma
[10] = test system: SN12C renal
[11] = test system: IGROV1 ovarian
[12] = test system: HL-60(TB) leukemia
[13] = test system: NCI-H522 lung
[14] = test system: SF-268 CNS
[15] = test system: OVCAR-4 ovarian
[16] = test system: HCT-15 colon
[17] = test system: OVCAR-8 ovarian
[18] = test system: NCI-H226 lung
[19] = test system: SK-MEL-28 melanoma
[20] = test system: MOLT-4 leukemia
[21] = test system: HOP-62 NSCLC
[22] = test system: OVCAR-5 ovarian
[23] = test system: NCI-H23 lung
[24] = test system: RXF 393 renal
[25] = test system: A498 renal
[26] = test system: M14 melanoma
[27] = test system: NCI-H460 lung
[28] = test system: SK-OV-3 ovarian
[29] = test system: UACC-62 melanoma
[30] = test system: DLD-1 colon
[31] = test system: ACHN renal
[32] = test system: DMS 273 small cell lung
[33] = test system: K-562 leukemia
[34] = test system: U251 CNS
[35] = test system: LXFL 529 NSCLC
[36] = test system: HOP-18 NSCLC
[37] = test system: KM12 colon
[38] = test system: HT29 colon
[39] = test system: HCC-2998 colon
[40] = test system: M19-MEL melanoma
[41] = test system: MALME-3M melanoma
[42] = test system: DMS 114 small cell lung
[43] = test system: A549 NSCLC
[44] = test system: UO-31 renal
[45] = test system: CAKI-1 renal
[46] = test system: COLO 205 colon
[47] = test system: CCRF-CEM leukemia
[48] = test system: RXF-631 renal
[49] = test system: 786-0 renal
[50] = test system: SNB-19 CNS
[51] = test system: SF-295 CNS
[52] = test system: RPMI-8226 leukemia
[53] = test system: KM20L2 colon
[54] = test system: XF 498 CNS
[55] = test system: SR leukemia
[56] = test system: UACC-257 melanoma
[57] = test system: HOP-92 NSCLC
[58] = test system: SNB-78 CNS
[59] = test system: HCT-116 colon

Measured: TGI

C=CCN=C1NC(=O)C(CC(=O)Nc2ccc(C)cc2)S1 (stereo unspecified)
not listed: [55] | [56] | [57] | [58] | [59]
> 100 µM: all other assays above

c1ccc2c3c([nH]c2c1)C1(CCCCC1)c1c([nH]c2ccccc12)C31CCCCC1
26 µM: [15]
68.2 µM: [36]
37.1 µM: [59]
36.5 µM: [1]
56.8 µM: [51]
97.1 µM: [18]
61.7 µM: [4]
95.4 µM: [14]
32.2 µM: [49]
50.4 µM: [17]
45.4 µM: [58]
54 µM: [25]
48.1 µM: [8]
80.1 µM: [41]
46.6 µM: [57]
97.6 µM: [34]
88.7 µM: [3]
85.2 µM: [7]
58.9 µM: [55]
64.5 µM: [29]
59 µM: [31] | [32]
89.4 µM: [24]
85.6 µM: [39]
54.8 µM: [21]
49.6 µM: [28]
not listed: [5] | [48]
> 100 µM: all other assays above
